Test results taken from patent US20260248768A1, “MYC PROGRAM AS A MARKER OF RESPONSE TO ENZALUTAMIDE IN PROSTATE CANCER” (Rutgers, The State University of New Jersey, priority 2022, published 2026).

Key:
Type in all cases: cell-based
[1] = tested on: MYC; test: Doxycycline-inducible shRNA knockdown of NME2, MYC expression by Western blot; settings: C4-2B cells; 0-2000 ng/mL doxycycline for 96 hours; Western blot (FIG. 15)
Description: Finally, C4-2B cells expressing doxycycline-inducible shRNA targeting NME2 were generated using the targeting sequence […] (SEQ ID NO: 9). Cells were treated with 0-2000 ng/mL doxycycline for 96 hours and NME2 and MYC expression were evaluated by Western blot.

[2] = tested on: LNCaP-EnzaRes cells; test: Colony formation assay, Enzalutamide-resistant LNCaP cells; settings: MYCi975 2 μM, Enzalutamide 10 μM, compared to Intact (DMSO)
Description: (§1) FIGS. 14A and 14B show MYC inhibition reduces viability and colony formation in Enzalutamide resistant conditions. (FIG. 14A) Drug response curves of Enzalutamide naïve LNCaP or Enzalutamide-resistant LNCaP cells treated with Enzalutamide and/or MYC-i975. (FIG. 14B) Colony formation assay using Enzalutamide-resistant LNCaP cells t (LNCaP-Enza-Res) in intact (treated with DMSO), treated with enzalutamide (10 μM), MYC-i975 (2 μM), or a combination of Enzalutamide+MYC-i975 (10 μM+2 μM). Cells were grown in the presence of respective drugs. Bars represent quantification of Crystal Violet trapped by migrated cells. P-value is estimated utilizing one-tailed Welch t-test. * p<0.05, *** p≤0.001.
(§2) Generation of Enzalutamide-resistant cell lines: LNCaP (clone FDG) and C42B cells were purchased from ATCC and were grown in RPMI1640 media (GIBCO #11875093) supplemented with 10% Fetal Bovine Serum (FBS, Corning Cat #35-011-CV) and maintained at […] in and 5% CO2. Enzalutamide powder was purchased from Sellekchem (cat #S1250) and re-suspended in DMSO. Cells were plated in 6 well plates and treated either with DMSO, or with Enzalutamide (20 μM), refreshed every 4 days for up to 3 months until the resistance emerged. RNA from cells was extracted on indicated days using the methods described below. […]

[3] = tested on: C42B-EnzaRes cells; test: Boyden chamber-based in vitro migration assay; settings: MYCi975 2 μM, Enzalutamide 10 μM, vs Intact (DMSO)
Description: (§3) FIGS. 13A-13F show MYC targeting is beneficial for patients in Enzalutamide-resistant conditions. (FIG. 13A) Drug sensitivity curves of Enzalutamide-naïve, or Enzalutamide-resistant (EnzaRes) C42B cells treated with MYCi975. (FIG. 13B) Colony formation assay using Enzalutamide-resistant (EnzaRes) C42B cells in Intact (treated with DMSO), treated with Enzalutamide (10 μM), MYCi975 (2 μM), or a combination of Enzalutamide+MYCi975 (10 μM+2 μM). Cells were grown in the presence of respective drugs. Representative images are shown. P-value was estimated using a one-tailed Welch t-test. (FIG. 13C) Boyden chamber-based in vitro migration assay using Enzalutamide-resistant (EnzaRes) C42B cells in Intact (treated with DMSO), treated with Enzalutamide (10 μM), MYCi975 (2 μM), or a combination of Enzalutamide+MYCi975 (10 μM+2 μM). Bars represent the quantification of Crystal Violet trapped by migrated cells. P-value was estimated using a one-tailed Welch t-test. (FIG. 13D) Expression of NME2 in Intact and Enzalutamide-resistant (EnzaRes) C42B cells, using the qRT-PCR. P-value was estimated using the one-tailed Welch t-test. […] Bars represent the quantification of Crystal Violet trapped by migrated cells. * p-value <0.05, ** p-value≤0.01, *** p-value≤0.001

[4] = tested on: LNCaP cells; test: Dose-response cell viability assay in LNCaP cells; settings: both Enzalutamide-naïve and Enzalutamide-resistant conditions, dose-dependent manner (FIG. 14A)
Description: as §1, §2

[5] = tested on: C42B cells; test: Dose-response cell viability assay in C42B cells; settings: both Enzalutamide-naïve and Enzalutamide-resistant conditions, dose-dependent manner (FIG. 13A)
Description: as §3, with “p-value≤0.001 […]” for “p-value≤0.001”

[6] = tested on: C42B-EnzaRes cells; test: Colony formation assay, Enzalutamide-resistant C42B cells; settings: MYCi975 2 μM, Enzalutamide 10 μM, compared to Intact (DMSO)
Description: as §3, with “p-value≤0.001 […]” for “p-value≤0.001”

Row | Compound | MYC expression [1] | colony formation [2] | cell migration [3] | cell viability [4] | cell viability [5] | colony formation [6]
1 | shRNA targeting NME2: doxycycline-inducible shRNA targeting NME2, targeting sequence GAAATCAGCCTATGGTTTAAG | suppresses MYC expression | – | – | – | – | –
2 | Cn1nc(C(F)(F)F)cc1-c1ccc(OCc2ccc(Cl)cc2)c(-c2ccc(Cl)c(C(F)(F)F)c2)c1O [MYCi975] | – | reduced the colony formation | significant reduction in cell migration | striking reduction of the cell viability | striking reduction of the cell viability | reduced the colony formation
